Test results as given in PubChem BioAssay AID1745844 (Carcinogenic Potency Database (CPDB), 2022).
The source made the active and inactive calls. How the calls were made is not given here.

Tested on: rodent lifetime carcinogenesis bioassay, tumor incidence TD50
Assay: carcinogenic potency in animals, long-term in vivo studies, CPDB compilation (AID 1745844)

Clc1cccc(-c2ccc(Cl)c(Cl)c2Cl)c1Cl
TD50 (mouse, strain BALB/cJ, males, in feed, site: liver, lesion: hepatoma, dosed 26 weeks, study length 47 weeks): 64.6 mg/kg/day | TD50 (mouse, strain BALB/cJ, males, in feed, site: liver, lesion: hepatoma, dosed 47 weeks, study length 47 weeks): 9.58 mg/kg/day | TD50 (rat, strain Fischer 344, females, in feed, site: liver, lesion: adenoma, NOS, dosed 105 weeks, study length 105 weeks): 34.8 mg/kg/day | carcinogen call (rat, strain Fischer 344, females, in feed, site: stomach, lesion: adenocarcinoma, NOS, dosed 105 weeks, study length 105 weeks): a | TD50 (rat, strain Fischer 344, males, in feed, site: all sites, lesion: leukemia + lymphoma, dosed 105 weeks, study length 105 weeks): 5.94 mg/kg/day | TD50 (rat, strain Fischer 344, males, in feed, site: all sites, lesion: leukemia, dosed 105 weeks, study length 105 weeks): 6.75 mg/kg/day | TD50 (rat, strain Fischer 344, males, in feed, site: any site (literature study), lesion: several types, types named in the paper, dosed 105 weeks, study length 105 weeks): 3.23 mg/kg/day | TD50 (rat, strain Fischer 344, males, in feed, site: cecum + jejunum + stomach, lesion: adenocarcinoma, NOS, dosed 105 weeks, study length 105 weeks): 34.6 mg/kg/day | TD50 (rat, strain Fischer 344, males, in feed, site: liver, lesion: adenoma, NOS + hepatocellular carcinoma, dosed 105 weeks, study length 105 weeks): 15.1 mg/kg/day | TD50 (rat, strain Fischer 344, males, in feed, site: liver, lesion: hepatocellular adenoma + hepatocellular carcinoma + neoplastic nodule, dosed 105 weeks, study length 105 weeks): 20.8 mg/kg/day | TD50 (rat, strain Sprague-Dawley, females, in feed, site: liver, lesion: cholangioma, dosed 104 weeks, study length 104 weeks): 15.3 mg/kg/day | TD50 (rat, strain Sprague-Dawley, females, in feed, site: liver, lesion: hepatocellular adenoma, dosed 104 weeks, study length 104 weeks): 3.07 mg/kg/day | TD50 (rat, strain Sprague-Dawley, females, in feed, site: liver, lesion: hepatocellular carcinoma, dosed 104 weeks, study length 104 weeks): 28.6 mg/kg/day | TD50 (rat, strain Sprague-Dawley, females, in feed, site: liver, lesion: several types, types named in the paper, dosed 104 weeks, study length 104 weeks): 2.82 mg/kg/day | TD50 (rat, strain Sprague-Dawley, males, in feed, site: liver, lesion: several types, types named in the paper, dosed 104 weeks, study length 104 weeks): 55.1 mg/kg/day | TD50 (rat, strain Sprague-Dawley, males, in feed, site: thyroid gland, lesion: follicular-cell adenoma, dosed 104 weeks, study length 104 weeks): 20.2 mg/kg/day | TD50 (rat, strain Sprague-Dawley, males, in feed, site: thyroid gland, lesion: follicular-cell carcinoma, dosed 104 weeks, study length 104 weeks): 89 mg/kg/day | TD50 (rat, strain Sprague-Dawley, males, in feed, site: thyroid gland, lesion: several types, types named in the paper, dosed 104 weeks, study length 104 weeks): 16.1 mg/kg/day

OCCN(CCO)C(=S)S
TD50 (mouse, strain B6AKF1, females, oral dosing, site: any site (literature study), lesion: several types, types named in the paper, dosed 79 weeks, study length 79 weeks): 138 mg/kg/day | TD50 (mouse, strain B6AKF1, females, oral dosing, site: liver, lesion: hepatoma, dosed 79 weeks, study length 79 weeks): 298 mg/kg/day | TD50 (mouse, strain B6AKF1, females, oral dosing, site: lung, lesion: adenoma, dosed 79 weeks, study length 79 weeks): 850 mg/kg/day | TD50 (mouse, strain B6AKF1, males, oral dosing, site: any site (literature study), lesion: several types, types named in the paper, dosed 79 weeks, study length 79 weeks): 45.6 mg/kg/day | TD50 (mouse, strain B6AKF1, males, oral dosing, site: liver, lesion: hepatoma, dosed 79 weeks, study length 79 weeks): 41.5 mg/kg/day | TD50 (mouse, strain B6C3F1, females, oral dosing, site: any site (literature study), lesion: several types, types named in the paper, dosed 79 weeks, study length 79 weeks): 48.4 mg/kg/day | TD50 (mouse, strain B6C3F1, females, oral dosing, site: liver, lesion: hepatoma, dosed 79 weeks, study length 79 weeks): 56.4 mg/kg/day | TD50 (mouse, strain B6C3F1, females, oral dosing, site: lung, lesion: adenoma, dosed 79 weeks, study length 79 weeks): 1080 mg/kg/day | TD50 (mouse, strain B6C3F1, males, oral dosing, site: any site (literature study), lesion: several types, types named in the paper, dosed 79 weeks, study length 79 weeks): 27.8 mg/kg/day | TD50 (mouse, strain B6C3F1, males, oral dosing, site: liver, lesion: hepatoma, dosed 79 weeks, study length 79 weeks): 34.5 mg/kg/day

CCN(CC(F)(F)F)N=O
TD50 (rat, strain Sprague-Dawley, males, by gavage, site: esophagus, lesion: papillary carcinoma, dosed 88 weeks, study length 88 weeks): 2.52 mg/kg/day | TD50 (rat, strain Sprague-Dawley, males, by gavage, site: nasal cavity, lesion: several types, types named in the paper, dosed 88 weeks, study length 88 weeks): 7.34 mg/kg/day

CN=C(NC#N)NCCSCc1nc[nH]c1C
TD50 (mouse, strain C57BL/6, females, in drinking water, site: liver, lesion: several types, types named in the paper, dosed 126 weeks, study length 126 weeks): 52200 mg/kg/day (inactive) | carcinogen call (mouse, strain C57BL/6, females, in drinking water, site: lung, lesion: one or several types, types not named, dosed 126 weeks, study length 126 weeks): negative (inactive) | carcinogen call (rat, strain Charles River CD (Sprague-Dawley), females, by gavage, site: gastric mucosa, lesion: carcinoid tumor, malignant, dosed 105 weeks, study length 105 weeks): negative (inactive) | carcinogen call (rat, strain Charles River CD (Sprague-Dawley), males, by gavage, site: gastric mucosa, lesion: carcinoid tumor, malignant, dosed 105 weeks, study length 105 weeks): negative (inactive)

COC(=O)C(C)(C)Oc1ccc(-c2ccc(Cl)cc2)cc1
TD50 (mouse, strain AP Alderly Park, females, in feed, site: liver, lesion: hepatocellular adenoma, dosed 78 weeks, study length 78 weeks): 2.27 mg/kg/day | TD50 (mouse, strain AP Alderly Park, females, in feed, site: liver, lesion: hepatocellular carcinoma, dosed 78 weeks, study length 78 weeks): 8.3 mg/kg/day | TD50 (mouse, strain AP Alderly Park, females, in feed, site: liver, lesion: several types, types named in the paper, dosed 52 weeks, study length 78 weeks): 25 mg/kg/day | TD50 (mouse, strain AP Alderly Park, females, several routes, site: liver, lesion: hepatocellular adenoma, dosed 78 weeks, study length 78 weeks): 48.5 mg/kg/day | TD50 (mouse, strain AP Alderly Park, females, several routes, site: liver, lesion: hepatocellular carcinoma, dosed 78 weeks, study length 78 weeks): 13.4 mg/kg/day | TD50 (mouse, strain AP Alderly Park, females, several routes, site: lung, lesion: adenoma, dosed 78 weeks, study length 78 weeks): 890 mg/kg/day | TD50 (mouse, strain AP Alderly Park, males, in feed, site: liver, lesion: hepatocellular adenoma, dosed 78 weeks, study length 78 weeks): 2.75 mg/kg/day | TD50 (mouse, strain AP Alderly Park, males, in feed, site: liver, lesion: hepatocellular carcinoma, dosed 78 weeks, study length 78 weeks): 0.858 mg/kg/day | TD50 (mouse, strain AP Alderly Park, males, in feed, site: liver, lesion: several types, types named in the paper, dosed 26 weeks, study length 78 weeks): 2.08 mg/kg/day | TD50 (mouse, strain AP Alderly Park, males, in feed, site: liver, lesion: several types, types named in the paper, dosed 52 weeks, study length 78 weeks): 5.94 mg/kg/day | TD50 (mouse, strain AP Alderly Park, males, several routes, site: liver, lesion: hepatocellular carcinoma, dosed 78 weeks, study length 78 weeks): 16.8 mg/kg/day | TD50 (rat, strain Alpk:APfSD, females, in feed, site: liver, lesion: hepatocellular adenoma, dosed 104 weeks, study length 104 weeks): 460 mg/kg/day | TD50 (rat, strain Alpk:APfSD, females, in feed, site: liver, lesion: hepatocellular carcinoma, dosed 104 weeks, study length 104 weeks): 5.88 mg/kg/day | TD50 (rat, strain Alpk:APfSD, males, in feed, site: liver, lesion: hepatocellular adenoma, dosed 104 weeks, study length 104 weeks): 17.4 mg/kg/day | TD50 (rat, strain Alpk:APfSD, males, in feed, site: liver, lesion: hepatocellular carcinoma, dosed 104 weeks, study length 104 weeks): 2.87 mg/kg/day | TD50 (rat, strain Alpk:APfSD, males, in feed, site: pancreas, exocrine, lesion: adenoma, dosed 52 weeks, study length 104 weeks): 1.44 mg/kg/day | TD50 (rat, strain Alpk:APfSD, males, in feed, site: pancreas, exocrine, lesion: adenoma, dosed 104 weeks, study length 104 weeks): 18.5 mg/kg/day | TD50 (rat, strain Alpk:APfSD, males, in feed, site: testis, lesion: Leydig-cell adenoma, dosed 104 weeks, study length 104 weeks): 2.93 mg/kg/day | carcinogen call (rat, strain Fischer 344, males, in feed, site: liver, lesion: hepatocellular carcinoma, dosed 75 weeks, study length 75 weeks): positive

C=CC=O
carcinogen call (mouse, strain Charles River CD1, females, by gavage, site: liver, lesion: hepatocellular adenoma, dosed 78 weeks, study length 78 weeks): negative (inactive) | carcinogen call (mouse, strain Charles River CD1, females, by gavage, site: lung, lesion: alveolar/bronchiolar adenoma, dosed 78 weeks, study length 78 weeks): negative (inactive) | TD50 (mouse, strain Charles River CD1, females, by gavage, site: lung, lesion: alveolar/bronchiolar carcinoma, dosed 78 weeks, study length 78 weeks): 90.3 mg/kg/day (inactive) | carcinogen call (mouse, strain Charles River CD1, males, by gavage, site: liver, lesion: hepatocellular adenoma, dosed 78 weeks, study length 78 weeks): negative (inactive) | carcinogen call (mouse, strain Charles River CD1, males, by gavage, site: liver, lesion: hepatocellular carcinoma, dosed 78 weeks, study length 78 weeks): negative (inactive) | TD50 (mouse, strain Charles River CD1, males, by gavage, site: lung, lesion: alveolar/bronchiolar adenoma, dosed 78 weeks, study length 78 weeks): 526 mg/kg/day (inactive) | TD50 (mouse, strain Charles River CD1, males, by gavage, site: lung, lesion: alveolar/bronchiolar carcinoma, dosed 78 weeks, study length 78 weeks): 62.6 mg/kg/day (inactive) | TD50 (rat, strain Fischer 344, females, in drinking water, site: adrenal gland, lesion: cortical adenoma, dosed 104 weeks, study length 132 weeks): 93.9 mg/kg/day | TD50 (rat, strain Fischer 344, females, in drinking water, site: liver, lesion: hepatocellular carcinoma, dosed 104 weeks, study length 132 weeks): 433 mg/kg/day | TD50 (rat, strain Fischer 344, females, in drinking water, site: liver, lesion: hyperplastic nodule, dosed 104 weeks, study length 132 weeks): 388 mg/kg/day | TD50 (rat, strain Fischer 344, females, in drinking water, site: liver, lesion: several types, types named in the paper, dosed 104 weeks, study length 132 weeks): 188 mg/kg/day | TD50 (rat, strain Fischer 344, males, in drinking water, site: forestomach, lesion: one or several types, types not named, dosed 117 weeks, study length 132 weeks): 14.4 mg/kg/day | TD50 (rat, strain Fischer 344, males, in drinking water, site: liver, lesion: hepatocellular carcinoma, dosed 117 weeks, study length 132 weeks): 1320 mg/kg/day | TD50 (rat, strain Sprague-Dawley, females, by gavage, site: adrenal gland, lesion: pheochromocytoma, dosed 104 weeks, study length 104 weeks): 5.53 mg/kg/day | TD50 (rat, strain Sprague-Dawley, females, by gavage, site: liver, lesion: hepatocellular adenoma, dosed 104 weeks, study length 104 weeks): 214 mg/kg/day | TD50 (rat, strain Sprague-Dawley, males, by gavage, site: adrenal gland, lesion: cortical adenoma, dosed 104 weeks, study length 104 weeks): 0.471 mg/kg/day | TD50 (rat, strain Sprague-Dawley, males, by gavage, site: adrenal gland, lesion: cortical carcinoma, dosed 104 weeks, study length 104 weeks): 57.7 mg/kg/day | TD50 (rat, strain Sprague-Dawley, males, by gavage, site: liver, lesion: hepatocellular adenoma, dosed 104 weeks, study length 104 weeks): 24.7 mg/kg/day

COC(=O)C1=C(C)NC(C)=C(C(=O)OCC(C)(C)CN(C)Cc2ccccc2)C1c1cc([N+](=O)[O-])ccc1F (centres undefined)
carcinogen call (rat, strain Fischer 344, females, in feed, site: liver, lesion: one or several types, types not named, dosed 104 weeks, study length 104 weeks): negative (inactive) | carcinogen call (rat, strain Fischer 344, males, in feed, site: all sites, lesion: mononuclear-cell leukemia, dosed 104 weeks, study length 104 weeks): negative (inactive) | carcinogen call (rat, strain Fischer 344, males, in feed, site: liver, lesion: hepatocellular adenoma, dosed 104 weeks, study length 104 weeks): negative (inactive)

Cc1ccc(NC(N)=O)cc1
carcinogen call (mouse, strain C57BL/6, females, in feed, site: liver, lesion: hepatocellular carcinoma, dosed 52 weeks, study length 69 weeks): negative (inactive) | carcinogen call (mouse, strain C57BL/6, females, in feed, site: lung, lesion: alveolar/bronchiolar adenoma, dosed 52 weeks, study length 69 weeks): negative (inactive) | TD50 (mouse, strain C57BL/6, males, in feed, site: all sites, lesion: malignant lymphoma, histiocytic type, dosed 52 weeks, study length 69 weeks): 265 mg/kg/day | TD50 (mouse, strain C57BL/6, males, in feed, site: all sites, lesion: malignant lymphoma, dosed 52 weeks, study length 69 weeks): 206 mg/kg/day | TD50 (mouse, strain C57BL/6, males, in feed, site: liver, lesion: hepatocellular carcinoma, dosed 52 weeks, study length 69 weeks): 722 mg/kg/day (inactive) | carcinogen call (mouse, strain C57BL/6, males, in feed, site: lung, lesion: alveolar/bronchiolar adenoma, dosed 52 weeks, study length 69 weeks): negative (inactive) | TD50 (mouse, strain C57BL/6, males, in feed, site: mesenteric lymph node, lesion: malignant lymphoma, histiocytic type, dosed 52 weeks, study length 69 weeks): 626 mg/kg/day | TD50 (mouse, strain C57BL/6, males, in feed, site: multiple organs, lesion: malignant lymphoma, histiocytic type, dosed 52 weeks, study length 69 weeks): 441 mg/kg/day | carcinogen call (rat, strain Fischer 344, females, in feed, site: liver, lesion: one or several types, types not named, dosed 52 weeks, study length 69 weeks): negative (inactive) | TD50 (rat, strain Fischer 344, males, in feed, site: liver, lesion: hepatocellular carcinoma, dosed 52 weeks, study length 69 weeks): 699 mg/kg/day (inactive)
